# Literature values in patent US6958144B2, “Methods of whitening teeth” (Britesmile Development, Inc., priority 1995, dated 2005).
# Conditions: 10% carbamide peroxide solution, background statement
compound,measurement,value
NC(N)=O.OO [carbamide peroxide],equilibrium pH,approximately 3.45
